{
  "source": "the NIST ThermoML archive (doi:10.1016/j.fluid.2013.07.060)",
  "key": {"[1]": {"conditions": "101.33 kPa, Liquid, Capillary tube (Ostwald / Ubbelohde) method"}, "[2]": {"assay": "xn = mol fraction of the nth substance listed", "conditions": "101 kPa, Liquid; for viscosity: Capillary tube (Ostwald / Ubbelohde) method; for mass density: Vibrating tube method"}},
  "note": "“And” between values parts separate entries of the source, which are not always exact repeats. Equal entries are not always repeated. ± gives the expanded uncertainty stated by the source.",
  "data": [
    {"compound": "CCCCCC", "note": "[hexane]", "values": [
      {"measurement": "viscosity", "setting": "[1]; 298.2 K", "value": "0.2937 ± 0.0065", "unit": "mPa·s"},
      {"measurement": "viscosity", "setting": "[1]; 303.16 K", "value": "0.2798 ± 0.0062", "unit": "mPa·s"},
      {"measurement": "viscosity", "setting": "[1]; 308.13 K", "value": "0.2669 ± 0.0059", "unit": "mPa·s"}
    ]},
    {"compound": "CCCCCC", "note": "[hexane] + FC(F)(F)C(F)(F)C(F)(F)C(F)(F)C(F)(F)C(F)(F)F", "values": [
      {"measurement": "viscosity", "setting": "[2]; 298 K, x2 = 0", "value": "0.294 ± 0.006", "unit": "mPa·s"},
      {"measurement": "mass density", "setting": "[2]; 298 K, x2 = 0", "value": "655 ± 1", "unit": "kg/m3"},
      {"measurement": "viscosity", "setting": "[2]; 303 K, x2 = 0", "value": "0.28 ± 0.006", "unit": "mPa·s"},
      {"measurement": "viscosity", "setting": "[2]; 308 K, x2 = 0", "value": "0.267 ± 0.006", "unit": "mPa·s"}
    ]},
    {"compound": "FC(F)(F)C(F)(F)C(F)(F)C(F)(F)C(F)(F)C(F)(F)F", "note": "[perfluorohexane] + CCCCCC", "values": [
      {"measurement": "viscosity", "setting": "[2]; 298 K, x1 = 0.243", "value": "0.341 ± 0.008", "unit": "mPa·s"},
      {"measurement": "viscosity", "setting": "[2]; 298 K, x1 = 0.5", "value": "0.408 ± 0.009 mPa·s and 0.407 ± 0.009 mPa·s"},
      {"measurement": "viscosity", "setting": "[2]; 298 K, x1 = 0.705", "value": "0.458 ± 0.01", "unit": "mPa·s"},
      {"measurement": "viscosity", "setting": "[2]; 298 K, x1 = 0.727", "value": "0.468 ± 0.01", "unit": "mPa·s"},
      {"measurement": "viscosity", "setting": "[2]; 298 K, x1 = 0.902", "value": "0.556 ± 0.012", "unit": "mPa·s"},
      {"measurement": "viscosity", "setting": "[2]; 298 K, x1 = 1", "value": "0.635 ± 0.014", "unit": "mPa·s"},
      {"measurement": "mass density", "setting": "[2]; 298 K, x1 = 0.25", "value": "956 ± 1", "unit": "kg/m3"},
      {"measurement": "mass density", "setting": "[2]; 298 K, x1 = 0.5", "value": "1207 ± 1", "unit": "kg/m3"},
      {"measurement": "mass density", "setting": "[2]; 298 K, x1 = 0.75", "value": "1457 ± 1", "unit": "kg/m3"},
      {"measurement": "mass density", "setting": "[2]; 298 K, x1 = 1", "value": "1672 ± 1", "unit": "kg/m3"},
      {"measurement": "viscosity", "setting": "[2]; 303 K, x1 = 0.243", "value": "0.319 ± 0.007", "unit": "mPa·s"},
      {"measurement": "viscosity", "setting": "[2]; 303 K, x1 = 0.5", "value": "0.375 ± 0.008", "unit": "mPa·s"},
      {"measurement": "viscosity", "setting": "[2]; 303 K, x1 = 0.705", "value": "0.428 ± 0.009", "unit": "mPa·s"},
      {"measurement": "viscosity", "setting": "[2]; 303 K, x1 = 0.727", "value": "0.438 ± 0.01", "unit": "mPa·s"},
      {"measurement": "viscosity", "setting": "[2]; 303 K, x1 = 0.902", "value": "0.52 ± 0.011", "unit": "mPa·s"},
      {"measurement": "viscosity", "setting": "[2]; 303 K, x1 = 1", "value": "0.589 ± 0.013", "unit": "mPa·s"},
      {"measurement": "viscosity", "setting": "[2]; 308 K, x1 = 0.243", "value": "0.299 ± 0.007", "unit": "mPa·s"},
      {"measurement": "viscosity", "setting": "[2]; 308 K, x1 = 0.5", "value": "0.35 ± 0.008 mPa·s and 0.352 ± 0.008 mPa·s"},
      {"measurement": "viscosity", "setting": "[2]; 308 K, x1 = 0.705", "value": "0.401 ± 0.009", "unit": "mPa·s"},
      {"measurement": "viscosity", "setting": "[2]; 308 K, x1 = 0.727", "value": "0.41 ± 0.009", "unit": "mPa·s"},
      {"measurement": "viscosity", "setting": "[2]; 308 K, x1 = 0.902", "value": "0.483 ± 0.01", "unit": "mPa·s"},
      {"measurement": "viscosity", "setting": "[2]; 308 K, x1 = 1", "value": "0.548 ± 0.012", "unit": "mPa·s"}
    ]}
  ]
}
